Data on 14 compounds can be found in patent US20200392158A1, “INHIBITORS OF LEUCINE RICH REPEAT KINASE 2” (GLAXOSMITHKLINE INTELLECTUAL PROPERTY DEVELOPMENT LIMITED, priority 2017, published 2020).

Each structure is given as a SMILES string.

The target of series [1] is T1, LRRK2 kinase in SH-SY5Y cells over-expressing recombinant full length LRRK2 (Homo sapiens, UniProt Q5S007).
T1 construct: A BacMam virus expressing full length recombinant LRRK2 was purchased from Invitrogen; host or cells: SH-SY5Y human neuroblastoma cells transduced with BacMam LRRK2 virus
Briefly: Recombinant cellular LRRK2 AlphaScreen assay (LRRK2 Ser935 phosphorylation). The settings on record: 60 min. The class given is cell-based. Summed up: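 SH-SY5Y cells transduced with BacMam full-length LRRK2 (MOI 50) for 24 h, then treated 60 min at 37 °C with compound (11-point 1:4 series, top 10 uM, 0.1% DMSO). Lysates probed by AlphaScreen for pSer935 vs total LRRK2; values fitted to a sigmoidal dose-response model.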
In general terms: In Alpha technology, singlet oxygen from a donor bead excites a nearby acceptor bead.

Another series relates to human hepatocytes. Kind of series: Metabolic stability assay in hepatocytes. Type of series: in vitro ADME. The settings on record: 0.5 μM test compound, intrinsic clearance. How it is done:
c. Metabolic Stability Assay
Metabolic stability of compounds of the invention was evaluated in hepatocytes from human and preclinical species (e.g. rat). A test compound (0.5 μM) was incubated with 0.5 million viable hepatocytes at 37° C. in a 95% humidified incubator supplied with 5% CO2. 7-ethoxycoumarin was used as positive control and was treated in the same manner as the test compound. The incubation samples were gently mixed at 150 rpm. Incubation medium was Williams' Medium E containing 2 mM GlutaMAX™ and 25 mM HEPES. Samples were removed from incubation at a specified time interval (tx): 0, 15, 30, 60, 90 and 120 min. Reactions were terminated by adding equal volume of ice-cold acetonitrile/methanol/acetic acid (80/20/1, v/v/v) containing an internal standard (e.g. 100 ng/mL to butamide as internal standard). […] The instrument responses of the test compound and the internal standard were measured using a compound specific LC/MS/MS methodology. The percentage of remaining test compound is calculated from the peak area ratio between the remaining test compound after incubation (tx) and the test compound peak area at the beginning of incubation (tx=0 min).
The half-life (t1/2) is calculated using the following equation: […]
Metabolic stability of a test compound is expressed as Intrinsic Clearance (Clint) and is calculated from the half-life (t1/2) using the following equation: […]

In series [2] the target is T2, full length G2019 human LRRK2 (Homo sapiens, UniProt Q5S007, R50H).
T2 construct: made in house; host or cells: HEK293 6E cells transduced with BacMam virus (virus generated in Sf9 cells)
Briefly: Full length G2019 human LRRK2 inhibition mass spectrometry assay. Type of series: biochemical. The following applies: LRRKtide to phospho-LRRKtide conversion, RapidFire MS, 2 mM ATP. An outline of the steps:
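Purified full-length Flag-tagged G2019 LRRK2, ~25 nM, with 25 μM LRRKtide and 2 mM ATP in 50 mM Hepes pH 7.2, 10 mM MgCl2, 150 mM NaCl, 1 h at room temperature. Quenched with formic acid; phospho- and unphosphorylated LRRKtide measured by RapidFire MS. pIC50 from 4-parameter fit of % conversion, 11 points, top 100 μM.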

T1 sequence (Q5S007 whole entry): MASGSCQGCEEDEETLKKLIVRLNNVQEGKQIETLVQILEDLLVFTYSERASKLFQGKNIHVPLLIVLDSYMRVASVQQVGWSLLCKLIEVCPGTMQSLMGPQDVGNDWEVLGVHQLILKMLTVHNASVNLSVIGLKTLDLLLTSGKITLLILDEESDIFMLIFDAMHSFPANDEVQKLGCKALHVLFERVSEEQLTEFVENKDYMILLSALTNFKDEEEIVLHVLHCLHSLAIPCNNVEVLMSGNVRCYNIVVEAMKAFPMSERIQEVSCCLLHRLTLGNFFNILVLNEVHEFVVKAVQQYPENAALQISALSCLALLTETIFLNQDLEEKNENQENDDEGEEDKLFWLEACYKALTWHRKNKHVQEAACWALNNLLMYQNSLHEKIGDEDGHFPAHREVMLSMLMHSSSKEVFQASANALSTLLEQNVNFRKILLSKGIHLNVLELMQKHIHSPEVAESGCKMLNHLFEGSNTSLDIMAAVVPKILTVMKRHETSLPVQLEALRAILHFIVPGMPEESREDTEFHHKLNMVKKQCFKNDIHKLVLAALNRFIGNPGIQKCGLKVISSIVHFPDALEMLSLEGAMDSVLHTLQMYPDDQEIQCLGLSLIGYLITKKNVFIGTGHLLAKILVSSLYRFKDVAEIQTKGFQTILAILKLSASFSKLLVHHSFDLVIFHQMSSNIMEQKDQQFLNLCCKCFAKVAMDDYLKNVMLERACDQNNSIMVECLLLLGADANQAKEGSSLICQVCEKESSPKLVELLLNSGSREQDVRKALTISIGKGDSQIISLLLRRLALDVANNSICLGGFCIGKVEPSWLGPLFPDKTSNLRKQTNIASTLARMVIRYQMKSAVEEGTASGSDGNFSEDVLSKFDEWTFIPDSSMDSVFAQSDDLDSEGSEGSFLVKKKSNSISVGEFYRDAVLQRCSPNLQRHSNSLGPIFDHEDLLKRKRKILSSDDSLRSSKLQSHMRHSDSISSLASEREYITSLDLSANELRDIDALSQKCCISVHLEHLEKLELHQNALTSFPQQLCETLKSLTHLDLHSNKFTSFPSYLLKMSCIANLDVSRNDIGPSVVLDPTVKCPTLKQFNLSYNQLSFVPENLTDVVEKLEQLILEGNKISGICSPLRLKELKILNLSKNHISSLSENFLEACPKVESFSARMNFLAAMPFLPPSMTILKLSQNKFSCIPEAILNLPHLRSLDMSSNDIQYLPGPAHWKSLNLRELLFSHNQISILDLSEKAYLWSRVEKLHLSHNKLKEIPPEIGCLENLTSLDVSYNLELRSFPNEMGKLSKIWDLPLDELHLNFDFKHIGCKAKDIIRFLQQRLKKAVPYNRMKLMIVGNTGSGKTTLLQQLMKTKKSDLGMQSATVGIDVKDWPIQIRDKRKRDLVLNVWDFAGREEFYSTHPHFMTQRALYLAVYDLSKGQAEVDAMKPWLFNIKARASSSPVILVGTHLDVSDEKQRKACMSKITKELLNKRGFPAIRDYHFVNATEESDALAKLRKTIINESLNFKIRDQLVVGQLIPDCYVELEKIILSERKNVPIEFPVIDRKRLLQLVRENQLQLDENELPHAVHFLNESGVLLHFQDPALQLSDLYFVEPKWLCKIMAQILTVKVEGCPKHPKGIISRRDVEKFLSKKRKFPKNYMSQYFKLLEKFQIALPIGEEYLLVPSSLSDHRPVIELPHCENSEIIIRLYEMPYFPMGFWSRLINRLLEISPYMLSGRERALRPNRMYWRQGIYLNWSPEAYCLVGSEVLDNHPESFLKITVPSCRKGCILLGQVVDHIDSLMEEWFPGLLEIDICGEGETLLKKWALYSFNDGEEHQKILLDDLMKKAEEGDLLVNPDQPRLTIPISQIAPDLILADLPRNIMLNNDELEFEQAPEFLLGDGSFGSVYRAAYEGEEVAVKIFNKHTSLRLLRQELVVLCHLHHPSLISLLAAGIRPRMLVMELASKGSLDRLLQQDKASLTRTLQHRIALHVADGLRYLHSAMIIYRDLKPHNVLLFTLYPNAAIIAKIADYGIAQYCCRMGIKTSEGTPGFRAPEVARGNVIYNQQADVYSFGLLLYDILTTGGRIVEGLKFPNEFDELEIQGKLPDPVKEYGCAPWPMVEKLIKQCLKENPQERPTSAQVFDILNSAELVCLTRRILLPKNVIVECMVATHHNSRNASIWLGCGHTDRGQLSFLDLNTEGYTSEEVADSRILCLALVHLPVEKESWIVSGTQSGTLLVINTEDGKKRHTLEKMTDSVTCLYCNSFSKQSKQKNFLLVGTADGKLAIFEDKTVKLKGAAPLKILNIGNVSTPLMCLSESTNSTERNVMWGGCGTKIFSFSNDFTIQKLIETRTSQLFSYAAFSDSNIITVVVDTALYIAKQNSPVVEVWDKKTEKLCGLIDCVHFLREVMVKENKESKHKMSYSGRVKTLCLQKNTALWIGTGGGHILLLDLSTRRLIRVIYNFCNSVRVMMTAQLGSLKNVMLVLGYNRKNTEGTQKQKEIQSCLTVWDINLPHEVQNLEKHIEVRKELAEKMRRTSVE
T2 sequence (Q5S007 with tags, fused parts or gaps R50H): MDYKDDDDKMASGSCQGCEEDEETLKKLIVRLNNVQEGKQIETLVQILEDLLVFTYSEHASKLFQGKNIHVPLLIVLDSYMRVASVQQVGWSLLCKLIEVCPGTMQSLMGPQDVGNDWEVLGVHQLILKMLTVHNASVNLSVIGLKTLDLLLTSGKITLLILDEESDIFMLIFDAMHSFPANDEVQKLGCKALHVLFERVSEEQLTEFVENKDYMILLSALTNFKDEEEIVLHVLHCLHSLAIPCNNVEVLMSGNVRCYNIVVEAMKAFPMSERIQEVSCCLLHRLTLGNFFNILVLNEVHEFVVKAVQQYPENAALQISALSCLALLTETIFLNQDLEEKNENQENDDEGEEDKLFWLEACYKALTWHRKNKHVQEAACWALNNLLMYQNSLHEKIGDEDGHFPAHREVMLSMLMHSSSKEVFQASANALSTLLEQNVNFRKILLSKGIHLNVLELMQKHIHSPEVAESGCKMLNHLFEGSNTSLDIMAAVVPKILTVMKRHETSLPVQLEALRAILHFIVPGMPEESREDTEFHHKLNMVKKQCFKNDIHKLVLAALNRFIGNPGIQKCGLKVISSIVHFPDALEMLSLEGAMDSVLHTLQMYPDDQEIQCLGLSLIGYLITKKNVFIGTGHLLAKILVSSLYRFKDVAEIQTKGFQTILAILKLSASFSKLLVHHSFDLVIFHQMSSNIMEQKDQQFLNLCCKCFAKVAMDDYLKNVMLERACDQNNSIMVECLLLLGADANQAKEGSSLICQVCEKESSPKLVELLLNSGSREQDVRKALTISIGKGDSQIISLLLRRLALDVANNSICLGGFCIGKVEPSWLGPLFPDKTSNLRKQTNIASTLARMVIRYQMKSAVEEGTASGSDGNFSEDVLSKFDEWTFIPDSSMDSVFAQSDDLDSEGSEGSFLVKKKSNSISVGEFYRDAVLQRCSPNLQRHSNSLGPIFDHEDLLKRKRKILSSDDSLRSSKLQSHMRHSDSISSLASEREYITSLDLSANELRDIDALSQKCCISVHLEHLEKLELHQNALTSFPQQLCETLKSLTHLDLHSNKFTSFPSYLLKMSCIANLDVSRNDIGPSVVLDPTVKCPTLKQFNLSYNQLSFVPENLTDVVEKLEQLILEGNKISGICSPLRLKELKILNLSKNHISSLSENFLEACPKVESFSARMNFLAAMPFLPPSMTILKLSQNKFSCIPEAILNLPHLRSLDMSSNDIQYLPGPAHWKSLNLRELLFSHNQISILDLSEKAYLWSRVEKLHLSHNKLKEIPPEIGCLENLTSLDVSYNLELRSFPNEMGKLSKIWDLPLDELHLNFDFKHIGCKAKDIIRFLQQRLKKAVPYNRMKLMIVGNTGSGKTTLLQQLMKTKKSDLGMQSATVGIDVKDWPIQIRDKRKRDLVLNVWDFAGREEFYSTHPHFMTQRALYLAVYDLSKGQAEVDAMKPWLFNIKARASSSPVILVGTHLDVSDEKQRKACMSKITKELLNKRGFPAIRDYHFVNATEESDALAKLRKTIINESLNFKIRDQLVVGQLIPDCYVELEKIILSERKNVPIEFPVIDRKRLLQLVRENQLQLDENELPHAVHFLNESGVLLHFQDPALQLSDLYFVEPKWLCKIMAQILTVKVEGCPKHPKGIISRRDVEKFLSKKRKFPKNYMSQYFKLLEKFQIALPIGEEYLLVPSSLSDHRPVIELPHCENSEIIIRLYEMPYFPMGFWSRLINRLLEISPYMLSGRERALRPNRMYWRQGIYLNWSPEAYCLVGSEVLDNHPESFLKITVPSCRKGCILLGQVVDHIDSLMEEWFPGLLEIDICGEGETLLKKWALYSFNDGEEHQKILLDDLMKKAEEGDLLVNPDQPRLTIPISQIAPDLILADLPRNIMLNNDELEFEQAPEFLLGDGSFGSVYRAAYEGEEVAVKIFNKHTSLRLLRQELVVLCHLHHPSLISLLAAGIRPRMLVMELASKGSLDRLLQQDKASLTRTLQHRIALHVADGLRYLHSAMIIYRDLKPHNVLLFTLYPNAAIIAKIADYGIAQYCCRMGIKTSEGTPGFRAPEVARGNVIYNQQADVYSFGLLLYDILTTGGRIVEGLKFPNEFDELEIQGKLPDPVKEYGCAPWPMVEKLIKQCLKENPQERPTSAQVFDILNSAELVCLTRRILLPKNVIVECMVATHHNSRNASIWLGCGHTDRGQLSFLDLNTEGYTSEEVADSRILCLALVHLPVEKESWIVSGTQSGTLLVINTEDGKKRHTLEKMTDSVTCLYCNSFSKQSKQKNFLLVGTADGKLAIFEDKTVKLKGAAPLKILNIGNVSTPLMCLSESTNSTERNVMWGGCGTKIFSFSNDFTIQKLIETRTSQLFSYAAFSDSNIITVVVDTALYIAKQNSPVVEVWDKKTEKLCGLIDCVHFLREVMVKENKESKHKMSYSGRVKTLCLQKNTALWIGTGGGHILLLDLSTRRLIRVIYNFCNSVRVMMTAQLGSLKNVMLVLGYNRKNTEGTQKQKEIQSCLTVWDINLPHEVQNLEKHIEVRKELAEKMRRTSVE

A word on the IC50: it is the point on the concentration scale where inhibition reaches its midpoint. Turning to `Cc1c2c(nn1C(=O)C1CC1)OCCCNc1nc(ncc1Cl)N2` [E362, 14-Chloro-5-cyclopropanecarbonyl-4-methyl-8-oxa-2,5,6,12,16, 17-hexaazatricyclo[11.3.1.0^3,7]heptadeca-1(16),3,6,13(17),14-pentaene], in series [1], the IC50 is not above 100 nM. Further, the “Clint (human)” value with human hepatocytes was more than 10 mL/min/g.
Consider `Cc1c2c(nn1C1CCC(N3C[C@H]4C[C@@H]3CO4)CC1)OCCCNc1nc(ncc1Cl)N2` (single isomer, unassigned) [E48], for which the half-inhibitory concentration (IC50) in series [2] and in series [1] was not above 100 nM in each case.
Take `Cc1c2c(nn1CCN1C[C@H]3C[C@@H]1CO3)OCCC(C)Nc1nc(ncc1Cl)N2` (single isomer, unassigned) [E208]: the IC50 in series [2] and in series [1] was not above 100 nM throughout.
With `Cc1c2c(nn1C1CC3CCC(C1)O3)OCCCNc1nc(ncc1Cl)N2` (single isomer, unassigned) [E243, 14-Chloro-4-methyl-5-{8-oxabicyclo[3.2.1]octan-3-yl}-8-oxa-2,5,6,12,16,17-hexaazatricyclo[11.3.1.0^3,7] heptadeca-1(16),3,6,13(17),14-pentaene], the IC50 in series [2] and in series [1] was not above 100 nM in each case.
With `Cc1c2c(nn1C1CCCN(C3COC3)C1)OCC[C@@H](C)Nc1nc(ncc1Cl)N2` (single isomer, unassigned) [E67], the half-inhibitory concentration (IC50) in series [2] and in series [1] was not above 100 nM each time.
Consider `Cc1c2c(nn1C(=O)C1CCOCC1)OCCCNc1nc(ncc1Cl)N2` [E363, 14-Chloro-4-methyl-5-(oxane-4-carbonyl)-8-oxa-2,5,6,12,16,17-hexaazatricyclo[11.3.1.0^3,7]heptadeca-1(16),3,6,13(17),14-pentaene], for which the IC50 in series [2] is not above 10000 nM; in series [1], not above 100 nM.
For the compound `Cc1[nH]nc2c1Nc1ncc(Cl)c(n1)N[C@H](C)CCO2` [E394, (11R)-14-Chloro-4,11-dimethyl-8-oxa-2,5,6,12,16,17-hexaazatricyclo[11.3.1.0^3,7]heptadeca-1(16),3,6,13(17),14-pentaene], the concentration for half-maximal inhibition (IC50) in series [2] and in series [1] was not above 100 nM throughout.
In the case of `Cc1c2c(nn1C1CCC(N3C[C@H]4C[C@@H]3CO4)CC1)OCCC(C)Nc1nc(ncc1Cl)N2` (single isomer, unassigned) [E57], the half-maximal inhibitory concentration (IC50) in series [2] and in series [1] was not above 100 nM each time.
Take `Cc1[nH]nc2c1Nc1ncc(C(F)(F)F)c(n1)NCCCO2` [E433, 4-Methyl-14-(trifluoromethyl)-8-oxa-2,5,6,12,16,17-hexaazatricyclo[11.3.1.0^3,7]heptadeca-1(16),3,6,13(17),14-pentaene]: the IC50 in series [2] and in series [1] was not above 100 nM in each case.
On to `Cc1c2c(nn1C1CN(C3COC3)CCC1F)OCC[C@@H](C)Nc1nc(ncc1Cl)N2` (single isomer, unassigned) [E403], for which the IC50 in series [2] and in series [1] was not above 100 nM in each case.
Turning to `Cc1c2c(nn1C1COC1)OCCCNc1nc(ncc1Br)N2` [E66, 14-Bromo-4-methyl-5-(oxetan-3-yl)-8-oxa-2,5,6,12,16,17-hexaazatricyclo[11.3.1.0^3,7]heptadeca-1(16),3,6,13(17),14-pentaene], the IC50 in series [2] and in series [1] was not above 100 nM in each case.
Regarding `Cc1c2c(nn1C1CCCOC1)OCC(C)CNc1nc(ncc1Cl)N2` (single isomer, unassigned) [E306, 14-Chloro-4,10-dimethyl-5-(oxan-3-yl)-8-oxa-2,5,6,12,16,17-hexaazatricyclo[11.3.1.0^3,7]heptadeca-1(16),3,6, 13(17),14-pentaene], the 50% inhibitory concentration (IC50) in series [2] and in series [1] was not above 100 nM each time.
As to `Clc1cnc2nc1NCCCOc1nn(C3CCOCC3)c(Cl)c1N2` [E13, 4,14-Dichloro-5-(oxan-4-yl)-8-oxa-2,5,6,12,16,17-hexaazatricyclo[11.3.1.0^3,7]heptadeca-1(16),3,6,13(17),14-pentaene], the IC50 in series [2] and in series [1] was not above 100 nM in each case.
Regarding `Cc1c2c(nn1C1CCCOC1)OCCCNc1cc(ncc1Cl)N2` (stereo not shown) [E379, 14-Chloro-4-methyl-5-(oxan-3-yl)-8-oxa-2,5,6,12,16-pentaazatricyclo[11.3.1.0^3,7] heptadeca-1 (16),3,6,13(17),14-pentaene], the IC50 in series [2] and in series [1] was not above 100 nM each time.
